The assay addresses T1, recombinant autotaxin (Homo sapiens, UniProt Q13822).
T1 construct: made in house; host or cells: Hi5 insect cells (baculovirus)
Nature of the assay: Autotaxin assay (Amplex Red, LPC substrate). It is filed as biochemical. Particulars: 75 μM LPC, Amplex Red fluorescence, ten 1:3 dilutions starting at 30 μM. An outline of the steps: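 Baculovirus (Hi5)-expressed autotaxin (16 ng) was preincubated with compound 30 min at 22° C., then reacted with 75 μM final egg LPC for 90 min at 37° C.; choline released was coupled via choline oxidase/peroxidase to Amplex Red, fluorescence read kinetically (ex 485/em 612 nm). IC50 from 10-point 1:3 dilutions from 30 μM, duplicates, normalized to 500 μM C14 LPA as 0%.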

Each structure is given as a SMILES string.

Broadly, the IC50 is the midpoint of a concentration-inhibition curve.

`Cc1ccc(CNc2ncc3c(Nc4ccc(F)cc4C)nccc3n2)cc1` [Compound 19, N5-(4-Fluoro-2-methyl-phenyl)-N2-(4-methyl-benzyl)-pyrido[4,3-d]pyrimidine-2,5-diamine]: the IC50 was less than 30 µM.

As to `COc1ccc(CNc2ncc3c(Nc4ccc5c(c4)OCO5)nccc3n2)cc1` [Compound 53, N5-Benzo[1,3]dioxol-5-yl-N2-(4-methoxy-benzyl)-pyrido[4,3-d]pyrimidine-2,5-diamine], the IC50 was less than 30 µM.

Turning to `CCCNC(=O)C1CCCN(c2nccc3nc(NCc4ccccc4Cl)ncc23)C1` (stereo not drawn) [Compound 85, 1-[2-(2-Chloro-benzylamino)-pyrido[4,3-d]pyrimidin-5-yl]-piperidine-3-carboxylic acid propylamide], the IC50 was less than 30 µM.

For `CCOCCCNC(=O)C1CCN(c2nccc3nc(NCc4ccccc4Cl)ncc23)CC1` [Compound 98, 1-[2-(2-Chloro-benzylamino)-pyrido[4,3-d]pyrimidin-5-yl]-piperidine-4-carboxylic acid (3-ethoxy-propyl)-amide], the IC50 was less than 5 µM.

Take `CCOCCCNC(=O)C1CCCN(c2nccc3nc(NCc4ccccc4Cl)ncc23)C1` (stereo not drawn) [Compound 88, 1-[2-(2-Chloro-benzylamino)-pyrido[4,3-d]pyrimidin-5-yl]-piperidine-3-carboxylic acid (3-ethoxy-propyl)-amide]: the IC50 is less than 10 µM.

Take `COc1ccccc1CNc1ncc2c(N3CCCC3)nccc2n1` [Compound 31, (2-Methoxy-benzyl)-(5-pyrrolidin-1-yl-pyrido[4,3-d]pyrimidin-2-yl)-amine]: the half-maximal inhibitory concentration (IC50) is less than 30 µM.

As to `Clc1ccccc1CNc1ncc2c(NCCCN3CCCCC3)nccc2n1` [Compound 16, N2-(2-Chloro-benzyl)-N5-(3-piperidin-1-yl-propyl)-pyrido[4,3-d]pyrimidine-2,5-diamine], the 50% inhibitory concentration (IC50) was less than 30 µM.

For `COc1ccccc1CNc1ncc2c(N3CCC(C(=O)NCc4ccco4)CC3)nccc2n1` [Compound 74, 1-[2-(2-Methoxy-benzylamino)-pyrido[4,3-d]pyrimidin-5-yl]-piperidine-4-carboxylic acid (furan-2-ylmethyl)-amide], the half-maximal inhibitory concentration (IC50) was less than 30 µM.

Consider `CCOc1ccccc1Nc1nccc2nc(NCc3ccccc3OC)ncc12` [Compound 32, N5-(2-Ethoxy-phenyl)-N2-(2-methoxy-benzyl)-pyrido[4,3-d]pyrimidine-2,5-diamine], for which the half-inhibitory concentration (IC50) was less than 30 µM.

`O=C(CCc1c[nH]cn1)N1CCN(c2nccc3nc(NCc4ccccc4Cl)ncc23)CC1` [Compound 122, 1-{4-[2-(2-Chloro-benzylamino)-pyrido[4,3-d]pyrimidin-5-yl]-piperazin-1-yl}-3-(1H-imidazol-4-yl)-propan-1-one]: the IC50 is less than 5 µM.

Regarding `COc1ccccc1CNc1ncc2c(Nc3ccc(OC)c(OC)c3)nccc2n1` [Compound 38, N5-(3,4-Dimethoxy-phenyl)-N2-(2-methoxy-benzyl)-pyrido[4,3-d]pyrimidine-2,5-diamine], the half-maximal inhibitory concentration (IC50) is less than 30 µM.

As for `COc1ccc(Nc2nccc3nc(NCc4ccccc4Cl)ncc23)cc1` [Compound 9, N2-(2-Chloro-benzyl)-N5-(4-methoxy-phenyl)-pyrido[4,3-d]pyrimidine-2,5-diamine], the IC50 is less than 30 µM.

With `COc1ccc(Nc2nccc3nc(NCc4ccccc4Cl)ncc23)cc1OC` [Compound 12, N2-(2-Chloro-benzyl)-N5-(3,4-dimethoxy-phenyl)-pyrido[4,3-d]pyrimidine-2,5-diamine], the half-maximal inhibitory concentration (IC50) is less than 30 µM.

As for `COCCCNC(=O)C1CCN(c2nccc3nc(NCc4ccccc4Cl)ncc23)CC1` [Compound 73, 1-[2-(2-Chloro-benzylamino)-pyrido[4,3-d]pyrimidin-5-yl]-piperidine-4-carboxylic acid (3-methoxy-propyl)-amide], the IC50 was less than 5 µM.

As for `O=C(NCc1ccco1)N1CCN(c2nccc3nc(NCc4ccccc4Cl)ncc23)CC1` [Compound 117, 4-[2-(2-Chloro-benzylamino)-pyrido[4,3-d]pyrimidin-5-yl]-piperazine-1-carboxylic acid (furan-2-ylmethyl)-amide], the concentration for half-maximal inhibition (IC50) was less than 30 µM.

As to `O=C(NCCO)C1CCN(c2nccc3nc(NCc4ccccc4Cl)ncc23)CC1` [Compound 105, 1-[2-(2-Chloro-benzylamino)-pyrido[4,3-d]pyrimidin-5-yl]-piperidine-4-carboxylic acid (2-hydroxy-ethyl)-amide], the half-inhibitory concentration (IC50) was less than 30 µM.

As for `COc1ccccc1CNc1ncc2c(Nc3ccc4c(c3)OCCO4)nccc2n1` [Compound 39, N5-(2,3-Dihydro-benzo[1,4]dioxin-6-yl)-N2-(2-methoxy-benzyl)-pyrido[4,3-d]pyrimidine-2,5-diamine], the IC50 was less than 30 µM.

For `Cn1cc(CCC(=O)N2CCN(c3nccc4nc(NCc5ccccc5Cl)ncc34)CC2)cn1` [Compound 120, 1-{4-[2-(2-Chloro-benzylamino)-pyrido[4,3-d]pyrimidin-5-yl]-piperazin-1-yl}-3-(1-methyl-1H-pyrazol-4-yl)-propan-1-one], the IC50 was less than 30 µM.

As to `Cc1ccccc1Nc1nccc2nc(NCc3ccc(F)cc3)ncc12` [Compound 22, N2-(4-Fluoro-benzyl)-N5-o-tolyl-pyrido[4,3-d]pyrimidine-2,5-diamine], the IC50 is less than 30 µM.

With `CCOCCCNC(=O)C1CCN(c2nccc3nc(NCc4ccccc4OC)ncc23)CC1` [Compound 102, 1-[2-(2-Methoxy-benzylamino)-pyrido[4,3-d]pyrimidin-5-yl]-piperidine-4-carboxylic acid (3-ethoxy-propyl)-amide], the half-inhibitory concentration (IC50) is less than 30 µM.

Regarding `Fc1ccc(CNc2ncc3c(Nc4ccc(F)cc4F)nccc3n2)cc1` [Compound 25, N5-(2,4-Difluoro-phenyl)-N2-(4-fluoro-benzyl)-pyrido[4,3-d]pyrimidine-2,5-diamine], the IC50 was less than 30 µM.

Turning to `NC(=O)C1CCN(c2nccc3nc(NCc4ccccc4Cl)ncc23)CC1` [Compound 107, 1-[2-(2-Chloro-benzylamino)-pyrido[4,3-d]pyrimidin-5-yl]-piperidine-4-carboxylic acid amide], the IC50 was less than 5 µM.

As for `COc1ccc(Nc2nccc3nc(NCc4ccccc4)ncc23)cc1OC` [Compound 6, N2-Benzyl-N5-(3,4-dimethoxy-phenyl)-pyrido[4,3-d]pyrimidine-2,5-diamine], the IC50 is less than 30 µM.

Take `CN(C)C(=O)CCC(=O)N1CCN(c2nccc3nc(NCc4ccccc4Cl)ncc23)CC1` [Compound 125, 4-{4-[2-(2-Chloro-benzylamino)-pyrido[4,3-d]pyrimidin-5-yl]-piperazin-1-yl}-N,N-dimethyl-4-oxo-butyramide]: the IC50 is less than 30 µM.
